In ChEMBL document CHEMBL3988442, “University of Dundee, Small-Polar-MMV Screening Library” (2021):
“And” between values parts separate entries of the source, which are not always exact repeats. Identical values can stand only once.

Legend:
Lysine--tRNA ligase = Lysine--tRNA ligase (Plasmodium falciparum (isolate 3D7), UniProt Q8IDJ8); experiment: Pf-KRS-1 (Lysyl-RNA Synthetase-1, KRS-1, cytosolic KRS) from Plasmodium falciparum. Inhibitor assay, 384 well plate, luminescence read.; type: functional
Sequence of Lysine--tRNA ligase (Q8IDJ8 whole entry): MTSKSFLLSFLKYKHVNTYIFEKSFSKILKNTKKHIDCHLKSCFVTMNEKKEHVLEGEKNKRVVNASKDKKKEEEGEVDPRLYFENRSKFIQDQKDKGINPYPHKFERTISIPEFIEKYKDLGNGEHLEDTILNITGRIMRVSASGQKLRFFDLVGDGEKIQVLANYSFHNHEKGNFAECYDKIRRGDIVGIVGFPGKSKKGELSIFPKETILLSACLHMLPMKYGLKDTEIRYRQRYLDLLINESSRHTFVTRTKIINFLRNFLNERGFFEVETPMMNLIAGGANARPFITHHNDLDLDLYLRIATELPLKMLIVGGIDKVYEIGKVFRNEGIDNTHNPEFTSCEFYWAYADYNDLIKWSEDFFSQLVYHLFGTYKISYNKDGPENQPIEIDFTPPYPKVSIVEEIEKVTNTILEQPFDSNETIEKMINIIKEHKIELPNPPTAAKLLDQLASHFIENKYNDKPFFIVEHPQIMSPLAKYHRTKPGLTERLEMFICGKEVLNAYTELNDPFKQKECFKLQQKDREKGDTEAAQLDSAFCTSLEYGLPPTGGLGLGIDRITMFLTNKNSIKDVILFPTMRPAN

Histidine--tRNA ligase = target: T1, Histidine--tRNA ligase (Leishmania infantum, UniProt A4I591); experiment: Leishmania infantum Histidine tRNA synthetase (LdHisRS); type: functional
T1 sequence (A4I591 whole entry): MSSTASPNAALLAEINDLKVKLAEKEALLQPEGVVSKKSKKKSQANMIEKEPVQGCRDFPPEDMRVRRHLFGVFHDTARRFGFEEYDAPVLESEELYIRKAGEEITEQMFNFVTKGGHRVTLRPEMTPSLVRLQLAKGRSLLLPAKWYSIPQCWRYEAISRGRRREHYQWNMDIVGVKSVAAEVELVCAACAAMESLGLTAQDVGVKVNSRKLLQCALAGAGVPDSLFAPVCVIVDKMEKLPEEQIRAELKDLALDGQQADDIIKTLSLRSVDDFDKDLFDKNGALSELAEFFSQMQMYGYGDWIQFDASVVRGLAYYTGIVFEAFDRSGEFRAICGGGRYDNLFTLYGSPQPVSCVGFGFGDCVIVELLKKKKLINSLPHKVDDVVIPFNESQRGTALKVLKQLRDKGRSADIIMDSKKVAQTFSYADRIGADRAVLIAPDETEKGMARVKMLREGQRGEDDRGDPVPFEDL

ClpP1P2 = ClpP1P2 (Mycobacterium tuberculosis (strain ATCC 25618 / H37Rv), UniProt P9WPC3+P9WPC5); experiment: in vitro assay to detect presence of AMC directly proportional to the activity of ClpP1P2. GHDDI collaboration.; type: functional
Sequence of ClpP1P2 (P9WPC5 whole entry): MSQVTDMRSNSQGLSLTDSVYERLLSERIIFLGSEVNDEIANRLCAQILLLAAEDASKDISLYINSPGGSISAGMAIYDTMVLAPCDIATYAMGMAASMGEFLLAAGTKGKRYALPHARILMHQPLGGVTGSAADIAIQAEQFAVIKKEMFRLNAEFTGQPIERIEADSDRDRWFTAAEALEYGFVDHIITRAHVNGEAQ
Sequence of ClpP1P2 (P9WPC3 whole entry): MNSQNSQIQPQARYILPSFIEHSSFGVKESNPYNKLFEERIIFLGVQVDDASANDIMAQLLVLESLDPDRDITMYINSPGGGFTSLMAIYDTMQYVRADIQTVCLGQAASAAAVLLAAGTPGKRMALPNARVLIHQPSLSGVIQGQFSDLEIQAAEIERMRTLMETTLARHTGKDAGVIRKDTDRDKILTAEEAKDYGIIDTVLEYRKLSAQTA

Leishmania donovani = experiment: Leishmania intramacrophage assay; type: functional, organism-based; conditions: Leishmania donovani
Tryptophan--tRNA ligase = Tryptophan--tRNA ligase (Mycobacterium tuberculosis (strain ATCC 25618 / H37Rv), UniProt P9WFT3); experiment: Biochemical assay for Mt-TrpRS; type: functional
Sequence of Tryptophan--tRNA ligase (P9WFT3 whole entry): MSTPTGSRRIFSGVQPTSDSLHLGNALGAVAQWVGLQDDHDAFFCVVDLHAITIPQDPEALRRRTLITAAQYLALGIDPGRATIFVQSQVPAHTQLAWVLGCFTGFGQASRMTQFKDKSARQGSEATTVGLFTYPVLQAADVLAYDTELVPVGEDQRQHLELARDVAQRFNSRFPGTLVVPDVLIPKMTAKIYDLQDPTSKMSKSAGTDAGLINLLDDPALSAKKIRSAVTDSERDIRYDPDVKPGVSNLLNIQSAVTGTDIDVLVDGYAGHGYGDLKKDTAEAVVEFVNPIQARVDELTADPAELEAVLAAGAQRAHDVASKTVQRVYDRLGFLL

Plasmodium falciparum = experiment: Calibr Malaria Delayed Death Assay SOP; type: functional, organism-based
[1] = In vitro enzyme assay to detect hydrolysis of chlorophenol red-beta-D-[…] directly proportional to the number of Toxoplasma stably expressing beta-galactosidase; type: functional, organism-based, Toxoplasma gondii; conditions: Toxoplasma gondii
[2] = microbe, parasite or virus in culture; conditions: Mycobacterium tuberculosis, 96 h, read-out: pIC50 (converted)
[3] = microbe, parasite or virus in culture; conditions: Mycobacterium tuberculosis, 72 h, read-out: pIC50 (converted)

Structure (SMILES)	IC50 (Lysine--tRNA ligase)	IC50 (Histidine--tRNA ligase)	other results
CCCn1nc2c(cc1=O)CN(c1ncnc3ccsc13)CC2	> 50.1 µM	43.5 µM and 33.5 µM	–
COc1cc(F)c(S(=O)(=O)Nc2cnc(O)cc2C)cc1OC	> 50.1 µM	16.2 µM and 17.5 µM	–
N#Cc1cc2c(=O)n(CC(O)C(F)(F)F)ccc2[nH]c1=O (stereo unspecified)	> 50.1 µM	–	IC50 (ClpP1P2): > 100 µM
COCCn1cc(NC(=O)C(C)CCc2ccccc2F)ccc1=O (stereo unspecified)	> 50.1 µM	3.96 µM and 4.01 µM	–
CC(C)Cc1ccc(S(=O)(=O)Nc2ccc(=O)n(C)c2)cc1	> 50.1 µM	12.5 µM and 18.7 µM	–
Cc1nnc(N2CCc3cncnc3C2)c(C#N)c1C	> 50.1 µM	21.4 µM and 27.5 µM	–
Cn1cccc(NC(=O)N2CCC(COCc3ccccc3)C2)c1=O (stereo unspecified)	> 50.1 µM	3.47 µM and 4.31 µM	–
COCCn1cc(NCc2cn(C)nc2-c2ccncc2)cn1	> 50.1 µM	47.4 µM and 46.6 µM	–
COc1ncc(-c2c(C#N)c(N)nc3c2CCc2[nH]ccc2-3)cn1	> 50.1 µM	8.08 µM and 5.62 µM	–
CC(C)NC(=O)N1CCC(c2nnc3n2CCNC3)CC1	> 50.1 µM	14.9 µM and 14.8 µM	–
Cc1cc(=O)n(C)cc1NC(=O)CC1CCC1	> 50.1 µM	7.56 µM and 7.2 µM	–
Cn1cc(Br)cc(NC(=O)CC(C)(C)C)c1=O	> 50.1 µM	13.9 µM and 12 µM	–
COc1ccc(N)c(N2CCN(C(C)=O)CC2)n1	> 50.1 µM	16.5 µM and 15.6 µM	–
Cn1cc(Br)cc(NC(=O)CC2CCC2)c1=O	> 50.1 µM	> 100 µM	–
COC(=O)c1ccc(OC)c(Cn2cc(N)cn2)c1	> 50.1 µM	56.4 µM and 66 µM	–
CC(O)CCn1ccc2[nH]c(=O)c(C#N)cc2c1=O (stereo unspecified)	> 50.1 µM	–	IC50 (ClpP1P2): > 100 µM
Cc1ccc(S(=O)(=O)Nc2ccc(=O)n(C)c2)cc1	> 50.1 µM	24.8 µM and 32.1 µM	IC50 (Leishmania donovani): > 50.1 µM

Structure (SMILES)	IC50 (Lysine--tRNA ligase)	IC50 (Histidine--tRNA ligase)	other results
Cc1occc1CN(C)C(=O)Nc1ccc(=O)n(C)c1	> 50.1 µM	9.57 µM and 9.94 µM	–
CCCn1nc2c(cc1=O)CN(CCCS(N)(=O)=O)CC2	> 50.1 µM	31.6 µM and 50.9 µM	–
CC1=C(C#N)C(=O)N(C)C(=O)/C1=C\C1=Cc2ccccc2OC1	> 50.1 µM	1.12 µM and 1.35 µM and 1.76 µM and 1.15 µM	–
CC(C(=O)Nc1ccc(Cl)cn1)N1CCc2nn(C)c(=O)cc2C1 (stereo unspecified)	> 50.1 µM	19.9 µM and 23 µM	–
CCC(Cn1ccc2[nH]c(=O)c(C#N)cc2c1=O)OC (stereo unspecified)	> 50.1 µM	–	IC50 (ClpP1P2): > 100 µM
O=C(Cc1ccc(F)cc1)N1CCCC(c2n[nH]c3nccnc23)C1 (stereo unspecified)	> 50.1 µM	–	IC50 (Tryptophan--tRNA ligase): > 195 µM
Fc1ccc(C2(CNC3=NCCN3)CCCC2)cc1.I	> 50.1 µM	–	pIC50 (Plasmodium falciparum): 6.191; IC50 (Plasmodium falciparum; Plasmodium falciparum): 0.629 µM
Cn1nc2c(cc1=O)CN(c1ncnc3ccsc13)CC2	> 50.1 µM	14.1 µM and 17.4 µM	IC50 [1]: 6.44 µM
Nc1nc(CC(=O)N2CCCC(CCc3cccc(F)c3)C2)cc(=O)[nH]1 (stereo unspecified)	> 50.1 µM	13.8 µM and 10 µM	–
Cc1nc(CN2CCCC(CCc3cccc(C(F)(F)F)c3)C2)co1 (stereo unspecified)	> 50.1 µM	–	IC50 [2]: 41.8 µM; IC50 [3]: 33.3 µM
COc1ncc(C)cc1NC(=O)COCC(F)(F)F	> 50.1 µM	25.3 µM and 19.4 µM	–
Cn1cnnc1C1CCN(c2cncc(-n3cccn3)n2)CC1	> 50.1 µM	–	IC50 (Leishmania donovani): > 50.1 µM; IC50 (ClpP1P2): > 100 µM
COCCCN1CCc2cncnc2C1	> 50.1 µM	29.5 µM and 38.3 µM	–
COCCn1cc(NC(=O)NC(C)CCc2ccccc2)ccc1=O (stereo unspecified)	> 50.1 µM	3.09 µM and 3.5 µM	–
Cc1noc(C(C)Nc2ccc3oc(C(C)C)nc3c2)n1 (stereo unspecified)	> 50.1 µM	34.3 µM and 43.8 µM	–
Cn1cccc(NC(=O)N2CCC(Cc3ccccc3)C2)c1=O (stereo unspecified)	> 50.1 µM	9.56 µM and 6.68 µM	–
